# From patent publication US11932619B1, “3-(2-(6-Methoxypyridin-3-yl)-4,5-diphenyl-1H-imidazol-1-yl)-N,N-dimethylpropan-1-amine as an anticancer compound” (KING FAISAL UNIVERSITY, priority 2023, dated 2024)
# Assays:
# [1] = test system: human osteosarcoma cells (MG-63); experiment: Assessment of cytotoxicity by SRB assay; assay type: cell-based; settings: MG-63 cells, 0.01 μM to 100 μM for 72 h
# Method: (§1) The human prostate cancer cells (PC3) and human osteosarcoma cells (MG-63) were obtained from Nawah Scientific Inc. (Mokatam, Cairo, Egypt) and cultured in DMEM (Dulbecco's modified eagle's medium), Gibco, USA, supplemented with fetal bovine serum (FBS) at a concentration of 10% and 100 U/mL of penicillin and streptomycin (PS). The Cells were incubated at 37° C. in a humidified environment that contained 5% CO2.
# (§2) Cells were seeded in 96-well plates as aliquots of 100 μL cell suspension and incubated in a complete media for 24 h. afterward, cells were treated with 3-(2-(6-Methoxypyridin-3-yl)-4,5-diphenyl-1H-imidazol-1-yl)-N,N-dimethylpropan-1-amine at diverse concentrations ranging from 0.01 μM to 100 μM for 72 h. Then, cells were fixed at 4° C. for one hour with 150 μL of 10% trichloroacetic acid (TCA). After washing the cells five times with distilled water, 70 μL of sulforhodamine (SRB) solution (0.4% w/v) was added and incubated for 10 min at room temperature in a dark place. […] Then, 150 μL of Tris pH 10.5 (10 mM) was added, and the absorbance was measured at 540 nm using a BMG LABTECH®- FLUOstar Omega microplate reader (Ortenberg, Germany). Half maximal inhibitory concentrations (IC50) values were calculated for each experiment using GraphPad Prism 6 software. […]
# (§3) The inhibition was calculated using the following equation: Inhibition %=100-Average Viability
# [2] = test system: human prostate cancer cells (PC3); experiment: Assessment of cytotoxicity by SRB assay; assay type: cell-based; settings: 0.01 μM to 100 μM for 72 h
# Method: as §1, §2, §3
smiles,measurement,setting,value
"COc1ccc(-c2nc(-c3ccccc3)c(-c3ccccc3)n2CCCN(C)C)cn1 [3-(2-(6-Methoxypyridin-3-yl)-4,5-diphenyl-1H-imidazol-1-yl)-N,N-dimethylpropan-1-amine]",melting point,,125 to 127 °C
same,antiproliferative activities,[1],excellent antiproliferative activities
same,antiproliferative activities,[2],excellent antiproliferative activities
